# Results as given in EP0923529B1 (Bayer Corporation, priority 1996, dated 1997).
# Where two headings read alike, the source gives them in different places.
# Columns and labels:
# Format in all cases: biochemical
# MMP-3 = target: T1, MMP-3 (Homo sapiens, UniProt P08254); test: P218 quenched fluorescence assay (MMP Microfluorometric Profiling Assay), MMP-3; conditions: for IC50: P218 substrate 6 µM, 25 min at 37 °C, pH 6.5; for inhibition at 5 µM: inhibitor at 5 µM, given as I = x %
# T1 construct: made in house; host or cells: CHO cells
# T1 sequence (P08254 100-477): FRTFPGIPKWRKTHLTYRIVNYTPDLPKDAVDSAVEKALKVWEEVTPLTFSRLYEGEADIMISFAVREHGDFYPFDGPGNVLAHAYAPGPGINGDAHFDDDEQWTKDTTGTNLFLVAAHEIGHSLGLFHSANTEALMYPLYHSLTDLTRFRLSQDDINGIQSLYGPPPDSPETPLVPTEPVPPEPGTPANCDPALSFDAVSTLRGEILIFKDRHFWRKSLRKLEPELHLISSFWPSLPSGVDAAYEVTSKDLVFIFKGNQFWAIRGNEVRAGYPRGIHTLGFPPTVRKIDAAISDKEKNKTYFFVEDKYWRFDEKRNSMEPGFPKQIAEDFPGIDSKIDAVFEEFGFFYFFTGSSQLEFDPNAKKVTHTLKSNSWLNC
# From the text: (§1) The P218 quenched fluorescence assay (Microfluorometric Profiling Assay) is a modification of that originally described by C. G. Knight et al., FEBS Letters, 296, 263-266 (1992) for a related substrate and a variety of matrix metalloproteinases (MMPs) in cuvettes. The assay was run with each exemplary compound of the invention and the three MMPs, MMP-3, MMP-9 and MMP-2, analyzed in parallel, adapted as follows for a 96-well microtitre plate and a Hamilton AT® workstation.
# (§2) P218 is a synthetic substrate containing a 4-acetyl-7-methoxycoumarin (MCA) group in the N-terminal position and a 3-(2,4-dinitrophenyl)-(L)-2,3-diaminopropionyl (DPA) group internally. This is a modification of a peptide reported by Knight (1992) that was used as a substrate for matrix metalloproteinases. Once the P218 peptide is cleaved (putative clip site at the Ala-Leu bond), the fluorescence of the MCA group can be detected on a fluorometer with excitation at 328 nm and emission at 393 nm. P218 is currently being produced by BACHEM Bioscience, Inc. exclusively for the Bayer Corp. P218 has the structure: H-MCA-Pro-Lys-Pro-Leu-Ala-Leu-DPA-Ala-Arg-NH2 (MW 1332.2)
# Recombinant Human CHO Pro-MMP-3: Human CHO pro-stromelysin-257 (pro-MMP-3) was expressed and purified as described by T. J. Housley et al., J. Biol. Chem., 268, 4481-4487 (1993).
# Activation of Pro-MMP-3: Pro-MMP-3 at 1.72 µM (100 µg/mL) in an MMP-3 activation buffer consisting of 5 mM Tris at pH 7.5, 5 mM CaCl2, 25 mM NaCl, and 0.005% Brij-35 was activated by incubation with TPCK (N-tosyl-(L)-phenylalanine chloromethyl ketone) trypsin (1:100 w/w to pro-MMP-3) at 25 °C for 30 min. The reaction was stopped by addition of soybean trypsin inhibitor (SBTI; 5:1 w/w to trypsin concentration).
# (§3) Hamilton Microlab AT Plus®: The MMP-profiling assay was performed robotically using a Hamilton MicroLab AT Plus®. The Hamilton was programmed to: (1) serially dilute up to 11 potential inhibitors automatically using a 2.5 mM stock solution of the inhibitor in 100% DMSO; (2) distribute substrate followed by inhibitor into a 96-well Cytofluor plate; and (3) add a single enzyme to the plate with mixing to start the reaction. Subsequent plates for each additional enzyme were prepared automatically by beginning the program at the substrate addition point, remixing the diluted inhibitors, and beginning the reaction by addition of enzyme. In this way, all MMP assays were done using the same inhibitor dilutions.
# (§4) Millipore Cytofluor II: Following incubation, the plate was read on a Cytofluor II fluorometric plate reader with excitation at 340 nm and emission at 395 nm with the gain set at 80.
# (§5) Microfluorometric Reaction Buffer (MRB): Dilutions of test compounds, enzymes and P218 substrate for the microfluorometric assay were made in microfluorometric reaction buffer (MRB) consisting of 50 mM 2-(N-morpholino)ethanesulfonic acid (MES) at pH 6.5 with 10 mM CaCl2, 150 mM NaCl, 0.005 % Brij-35 and 1% DMSO.
# (§6) MMP Microfluorometric Profiling Assay. The assay was done with a final P218 concentration of 6 µM, approximately 0.5 to 0.8 nM of activated MMP (one MMP per 96-well plate), and with variable inhibitor concentrations. The Hamilton MicroLab AT Plus® was programmed to serially dilute up to 11 compounds from a 2.5 mM stock (100% DMSO) to 10-times the final compound concentrations in the assay. Initially, the instrument delivered various amounts of microfluorometric reaction buffer (MRB) to a 96-tube rack of 1 mL Marsh dilution tubes. The instrument picked up 20 µL inhibitor (2.5 mM) and mixed it with buffer in row A of the Marsh rack, resulting in a 50 µM inhibitor concentration. The inhibitors were then serially diluted to 10, 5, 1, 0.2, 0.05 and 0.01 µM. […] The instrument re-mixed and loaded 14.5 µL of diluted compound from rows A to G in the Marsh rack to the corresponding rows in the microtiter plate.
# MMP-9 = target: T2, MMP-9 (Homo sapiens, UniProt P14780); test: P218 quenched fluorescence assay (MMP Microfluorometric Profiling Assay), MMP-9; conditions: for IC50: P218 substrate 6 µM, 25 min at 37 °C, pH 6.5; for inhibition at 5 µM: read-out: MMP-9 % inhibition at 5 µM, inhibitor at 5 µM, given as I = x %
# T2 construct: made in house
# T2 sequence (P14780 107-707 limits assumed): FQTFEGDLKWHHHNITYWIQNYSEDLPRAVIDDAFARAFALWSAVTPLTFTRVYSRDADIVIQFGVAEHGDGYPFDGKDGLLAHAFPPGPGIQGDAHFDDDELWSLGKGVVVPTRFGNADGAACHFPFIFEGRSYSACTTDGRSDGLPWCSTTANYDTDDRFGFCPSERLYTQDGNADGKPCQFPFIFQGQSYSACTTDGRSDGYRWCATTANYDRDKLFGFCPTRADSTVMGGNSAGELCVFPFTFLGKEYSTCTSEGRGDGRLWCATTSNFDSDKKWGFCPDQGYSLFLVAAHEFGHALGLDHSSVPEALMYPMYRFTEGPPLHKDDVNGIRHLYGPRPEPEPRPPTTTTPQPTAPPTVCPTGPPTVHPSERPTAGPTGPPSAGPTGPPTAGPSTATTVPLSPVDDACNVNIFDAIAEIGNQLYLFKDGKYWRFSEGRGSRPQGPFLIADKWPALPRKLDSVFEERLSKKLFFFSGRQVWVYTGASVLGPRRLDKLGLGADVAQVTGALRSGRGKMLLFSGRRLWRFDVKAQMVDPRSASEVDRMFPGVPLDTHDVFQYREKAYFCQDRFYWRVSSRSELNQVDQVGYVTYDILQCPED
# From the text: as §1, §2
# Human Recombinant Pro-MMP-9: Human recombinant pro-gelatinase B (pro-MMP-9) derived from U937 cDNA as described by S. M. Wilhelm et al., J. Biol. Chem., 264, 17213-17221 (1989) was expressed as the full-length form using a baculovirus protein expression system. The pro-enzyme was purified using methods previously described by M.S. Hibbs, et al., J. Biol. Chem., 260, 2493-500 (1984).
# Activation of Pro-MMP-9 : Pro-MMP-9 (20 µg/mL) in an MMP-9 activation buffer consisting of 50 mM Tris at pH 7.4, 150 mM NaCl, 10 mM CaCl2 and 0.005% Brij-35 was activated by incubation with a 0.5 mM p-aminophenylmercuric acetate (APMA) for 3.5 h at 37 °C. The enzyme was dialyzed against the same buffer to remove APMA.
# as §3, §4, §5
# as §6, with “plate. […]” for “plate.”
# MMP-2 = target: T3, MMP-2 (Homo sapiens, UniProt P08253); test: P218 quenched fluorescence assay (MMP Microfluorometric Profiling Assay), MMP-2; conditions: for inhibition at 5 µM: read-out: MMP-2 % inhibition at 5 µM, inhibitor at 5 µM, given as I = x %
# T3 sequence (P08253 110-660): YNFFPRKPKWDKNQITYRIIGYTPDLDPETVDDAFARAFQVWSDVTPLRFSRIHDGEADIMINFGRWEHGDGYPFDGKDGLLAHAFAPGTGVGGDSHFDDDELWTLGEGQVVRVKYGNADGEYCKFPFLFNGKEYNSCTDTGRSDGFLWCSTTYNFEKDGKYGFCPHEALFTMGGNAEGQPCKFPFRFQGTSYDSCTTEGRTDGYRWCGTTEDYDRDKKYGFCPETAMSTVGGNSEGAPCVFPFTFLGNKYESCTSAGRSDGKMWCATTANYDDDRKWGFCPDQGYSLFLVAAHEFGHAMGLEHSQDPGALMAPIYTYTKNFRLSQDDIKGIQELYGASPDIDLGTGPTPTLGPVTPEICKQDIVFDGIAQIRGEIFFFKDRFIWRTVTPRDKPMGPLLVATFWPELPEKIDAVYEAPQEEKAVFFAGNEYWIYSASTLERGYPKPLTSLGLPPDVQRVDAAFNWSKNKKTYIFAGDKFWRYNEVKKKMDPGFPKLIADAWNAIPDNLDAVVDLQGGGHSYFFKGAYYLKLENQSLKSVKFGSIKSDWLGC
# [1] = P218 substrate 6 µM, 25 min at 37 °C, pH 6.5, read-out: MMP-2 IC50
compound,measurement,setting,value
"O=C(CC(CCCc1ccccc1)C(=O)O)c1ccc(C#CCO)cc1 (racemic) [Example 1, 4-(4-(3-hydroxyprop-1-ynyl)phenyl)-4-oxo-2-(3-phenylpropyl)butyric acid]",IC50,MMP-3,3300 nM
same,IC50,MMP-9,1850 nM
same,IC50,MMP-2; [1],485 nM
"O=C(CC(CCN1C(=O)c2ccccc2C1=O)C(=O)O)c1ccc(Br)cc1 (stereo not shown) [Compound B, 4-(4-bromophenyl)-4-oxo-2-(2-phthalimidoethyl) butyric acid, reference compound]",inhibition at 5 µM,MMP-3,46%
same,IC50,MMP-9,1450 nM
same,IC50,MMP-2,2400 nM
"O=C(CC(CCCc1ccccc1)C(=O)O)c1ccccc1 (stereo not shown) [Compound C, 4-phenyl-4-oxo-2-(3-phenylpropyl)butyric acid, reference compound]",inhibition at 5 µM,MMP-3,20%
same,inhibition at 5 µM,MMP-9,23%
same,inhibition at 5 µM,MMP-2,36%
"O=C(CC(CCN1C(=O)c2ccccc2C1=O)C(=O)O)c1ccccc1 (stereo not shown) [Compound D, 4-phenyl-4-oxo-2-(2-phthalimidoethyl)butyric acid, reference compound]",IC50,MMP-3,5000 nM
same,IC50,MMP-9,1000 nM
same,IC50,MMP-2,1400 nM
"CC(C)(C)[Si](C)(C)OCCCCC#Cc1ccc(C(=O)CC(CCN2C(=O)c3ccccc3C2=O)C(=O)O)cc1 (stereo not shown) [Compound E, reference compound]",IC50,MMP-3,5100 nM
same,IC50,MMP-9,5050 nM
same,IC50,MMP-2; [1],1450 nM
"CCCCCCCCCCCCCCOc1ccc(C(=O)CC(CCN2C(=O)c3ccccc3C2=O)C(=O)O)cc1 (stereo not shown) [Compound F, 4-(4-tetradecyloxyphenyl)-4-oxo-2-(2-phthalimidoethyl)butyric acid, reference compound]",inhibition at 5 µM,MMP-3,18%
same,inhibition at 5 µM,MMP-9,6%
same,inhibition at 5 µM,MMP-2,16%
"COc1ccc(C(=O)CC(CCN2C(=O)c3ccccc3C2=O)C(=O)O)cc1 (stereo not shown) [Compound G, 4-(4-methoxyphenyl)-4-oxo-2-(2-phthalimidoethyl)butyric acid, reference compound]",inhibition at 5 µM,MMP-3,29%
same,inhibition at 5 µM,MMP-9,46%
same,inhibition at 5 µM,MMP-2,48%
"CCCCC#Cc1ccc(C(=O)CC(CCCc2ccccc2)C(=O)O)cc1 (stereo not shown) [Example 2, 4-(4-(hex-1-ynyl)phenyl)-4-oxo-2-(3-phenylpropyl)butyric acid]",IC50,MMP-3,1870 nM
same,IC50,MMP-9,1570 nM
same,IC50,MMP-2,460 nM
"O=C(CC(CCCc1ccccc1)C(=O)O)c1ccc(C#CCCCCO)cc1 (stereo not shown) [Example 3, 4-(4-(6-hydroxyhex-12-ynyl)phenyl)-4-oxo-2-(3-phenylpropyl)butyric acid]",inhibition at 5 µM,MMP-3,43%
same,IC50,MMP-9,4350 nM
same,IC50,MMP-2; [1],640 nM
CCCCC#Cc1ccc(C(=O)CC(CCN2C(=O)c3ccccc3C2=O)C(=O)O)cc1 (stereo not shown) [Example 4],IC50,MMP-3,125 nM
same,IC50,MMP-9,20 nM
same,IC50,MMP-2,42 nM
"O=C(CC(CCN1C(=O)c2ccccc2C1=O)C(=O)O)c1ccc(C#CCCCCO)cc1 (stereo not shown) [Example 5, 4-(4-(6-hydroxyhex-1-ynyl)phenyl)-4-oxo-2-(2-phthalimidoethyl)butyric acid]",IC50,MMP-3,870 nM
same,IC50,MMP-9,150 nM
same,IC50,MMP-2,92 nM
"O=C(CC(CCN1C(=O)c2ccccc2C1=O)C(=O)O)c1ccc(C#CCO)cc1 (stereo not shown) [Example 6, 4-(4-(3-hydroxyprop-1-ynyl)phenyl)-4-oxo-2-(2-phthalimidoethyl)butyric acid]",IC50,MMP-3,565 nM
same,IC50,MMP-9,76 nM
same,IC50,MMP-2,130 nM
"CCCCCCc1ccc(C(=O)CC(CCN2C(=O)c3ccccc3C2=O)C(=O)O)cc1 (stereo not shown) [Example 7, 4-(4-hexylphenyl)-4-oxo-2-(2-phthalimidoethyl) butyric acid]",IC50,MMP-3,1040 nM
same,IC50,MMP-9,400 nM
same,IC50,MMP-2,295 nM
"CCCCCCCOc1ccc(C(=O)CC(CCN2C(=O)c3ccccc3C2=O)C(=O)O)cc1 (stereo not shown) [Example 10, 4-(4-heptyloxyphenyl)-4-oxo-2-(2-phthalimidoethyl) butyric acid]",IC50,MMP-3,61 nM
same,IC50,MMP-9,85 nM
same,IC50,MMP-2,40 nM
"CCCCCCOc1ccc(C(=O)CC(CCN2C(=O)c3ccccc3C2=O)C(=O)O)cc1 (stereo not shown) [Example 11, 4-(4-hexyloxyphenyl)-4-oxo-2-(2-phthalimidoethyl) butyric acid]",IC50,MMP-3,114 nM
same,IC50,MMP-9,68 nM
same,IC50,MMP-2,79 nM
"CCCCCCCCCCOc1ccc(C(=O)CC(CCN2C(=O)c3ccccc3C2=O)C(=O)O)cc1 (stereo not shown) [Example 12, 4-(4-decyloxyphenyl)-4-oxo-2-(2-phthalimidoethyl) butyric acid]",IC50,MMP-9,360 nM
"O=C(CC(CCN1C(=O)c2ccccc2C1=O)C(=O)O)c1ccc(OCCOCc2ccccc2)cc1 (stereo not shown) [Example 13, 4-(4-(2-benzyloxyethoxy)phenyl)-4-oxo-2-(2-phthalimidoethyl)butyric acid]",IC50,MMP-3,82 nM
same,IC50,MMP-9,355 nM
same,IC50,MMP-2,53 nM
